Data on 79 compounds can be found in the METLIN SMRT retention time set (Domingo-Almenara et al. 2019).

This series is described as follows: gradient 5% acetonitrile 3 min, to 50% in 2 min, to 85% in 15 min, held 3 min, 100 µL/min. The conditions noted are these: column: Zorbax Extend-C18 2.1 x 50 mm; eluents: water / acetonitrile, 0.1% formic acid. The gist of the method:
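The system's dead and dwell volumes were 40 μL and 900 μL, with a Zorbax Extend-C18 column (2.1 × 50 mm, 1.8 μm) run at 100 μL/min in water and acetonitrile containing 0.1% formic acid each. Pure standards were analyzed in mixtures of ~100 molecules by HPLC–quadrupole time-of-flight mass spectrometry in positive and negative ionization mode. Retention time was assigned from computationally picked, manually inspected adduct peaks.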
For `COc1ccc(N2CCN(S(=O)(=O)c3cc(-c4nc(C)cs4)cs3)CC2)cc1`, the RP-LC retention time came out at 1070 s. With `NS(=O)(=O)c1ccc(NC(=O)C2(c3cc(-c4ccco4)on3)CC2)cc1` the figure was 745 s; with `CCOc1ccc(-n2nnc(-c3nc(-c4cccc(OC)c4)cs3)c2N)cc1`, 1130 s. With `O=C(NCc1ccccc1F)C1CCN(C(=O)c2ncn3c2COC(c2ccccc2)C3)CC1` (centres undefined) the figure was 747 s; with `Cc1ccc(NC(=O)C2CCN(C(=O)c3ncn4c3COC(c3ccc(F)cc3)C4)CC2)c(C)c1` (centres undefined), 832 s.

Take `COCCC(=O)N1CCCN(C2=NS(=O)(=O)C(c3ccc(C)cc3)=C2C)CC1`: the RP-LC retention time was determined as 720 s. With `O=C(c1cn(-c2cc(N3CCSCC3)ncn2)cn1)N1CCN(c2ccccn2)CC1` the figure was 624 s; with `COc1ccc2c(c1)-c1nc(NC(=O)c3cccc(Br)c3)sc1CC2`, 1230 s; with `CO[C@H]1CN(C2CCN(Cc3ccc(C)o3)CC2)[C@H]1c1ccncc1`, 588 s. To `CCCN1C(=O)COc2ccc(-c3noc(-c4ccc(OC)cc4C)n3)cc21` belongs 1320 s; to `Cc1noc(-c2ccc(OC3CN(C(=O)c4cccc5[nH]ccc45)C3)cc2)n1`, 597 s.

In the case of `COc1ccc(-c2nc(CNC(=O)Cn3cnc(-c4cccs4)cc3=O)cs2)cc1`, the RP-LC retention time amounted to 746 s. With `CC(n1cc(C[C@H](N)C(=O)O)c2ccccc21)n1cc(C[C@H](N)C(=O)O)c2ccccc21` the figure was 628 s. With `CCCCCOC(=O)Nc1nc(=O)n(C2OC(C)C(O)C2O)cc1F` (centres undefined) the figure was 874 s; with `Cc1ccc(CNC(=O)Nc2ccc(-c3nc(-c4cc(C)ccc4C)co3)cc2)cc1`, 1240 s; with `CCNC(=O)C1CCCN(c2nc3ncn(CC(=O)Nc4cc(F)ccc4F)c(=O)c3s2)C1` (centres undefined), 685 s. With `COc1cccc(CNC(=O)C2CCN(S(=O)(=O)c3ccc4c(c3)sc(=O)n4C)CC2)c1` the figure was 798 s. With `CS(=O)(=O)N(C1CCOCC1)C1CN(C(=O)Nc2ccccc2)C1`, the RP-LC retention time was 666 s. With `CCCn1c(-c2cccc(C(=O)NCCC3=CCCCC3)c2)nc2cccnc21` the figure was 935 s; with `CC(C)NC(=O)Cn1cccc1-c1nc(-c2ccc3c(c2)OCO3)no1`, 925 s; with `CN1CCN(c2ncc3c(=O)n(CC4CCCO4)ccc3n2)CC1` (centres undefined), 567 s. The compound `CN(C)CC1(O)CCC2(CCN(C(=O)c3ccsc3)CC2)CC1` came in with an RP-LC retention time of 576 s.

As to `O=C(c1ccc(OC(F)(F)F)cc1)N1CCN(CCn2cccn2)CC1`, the RP-LC retention time was determined as 582 s. With `COc1ccc(N2CCN(C(=O)C3CC(=O)N(c4n[nH]c5cccc(F)c45)C3)CC2)cc1` (centres undefined) the figure was 662 s. With `CCC1CCCCN1CCNC(=O)CCc1cc2ccc(C)cc2[nH]c1=O` (centres undefined) the figure was 621 s; with `Cn1cc(S(=O)(=O)N2CCC(C(=O)N3CCc4ccccc4C3)CC2)cc1C(=O)N1CCCC1`, 782 s; with `COc1nc(-c2ccc3c(c2)OCO3)n(-c2ccc(NC(=O)CSc3ccccc3)cc2)n1`, 894 s. To `O=C(Nc1ccc(Cl)cc1)C1CCN(S(=O)(=O)c2ccc3[nH]c(=O)sc3c2)CC1` belongs 854 s; to `Cc1ccc(NC(=O)N(C)CCc2noc(COc3ccccc3)n2)c(C)c1`, 934 s. On to `Cc1cc(N2CCCC2)n2nc(-c3ccc(Cl)cc3)c(C)c2n1`, for which the RP-LC retention time was found to be 799 s.

In the case of `CC1=NS(=O)(=O)N(C)C=C1C(=O)OCc1nc(-c2cccc(F)c2)no1`, the RP-LC retention time came out at 967 s. To `Cc1cc(C(F)F)n2nc(C(=O)N3CCCC3c3ccc(F)cc3)nc2n1` (centres undefined) belongs 808 s; to `O=C(c1ccc2ccnc(N3CCN(c4ccccc4)CC3)c2c1)N1CCN(C2CCCCC2)CC1`, 625 s.

For `COc1ccc(-c2nc3cccc(C)n3c2Nc2ccccc2C)cc1`, the RP-LC retention time was found to be 773 s. To `CCCN1CCN(Cc2nc3nc(C)cc(N4CCCCCC4)n3n2)CC1` belongs 587 s. On to `Cc1cccc(-c2noc(Cc3nnc(-c4ccc(F)cc4)o3)n2)c1`, for which the RP-LC retention time was 1070 s.

In turn, `O=S(=O)(c1cccc(F)c1)N1CC(c2noc(C3CCCN3CC3CC3)n2)C1` (centres undefined) yielded an RP-LC retention time of 676 s.

On to `Cc1cc2c(cc1S(=O)(=O)N1CCCC1)N(C(=O)C1CC1)CC2`, for which the RP-LC retention time turned out to be 876 s.

The compound `Cc1cccc(NC(=O)N2CCCC(Cn3c(C4CC4)nc4cccnc43)C2)c1C` (centres undefined) showed an RP-LC retention time of 683 s.

Take `Cc1ccc(-c2cc3c(=O)n(CC(O)c4ccccc4)ccn3n2)c(C)c1` (centres undefined): the RP-LC retention time came to 982 s. With `COc1ccc(-c2ncc3c(n2)CCN(C(=O)c2ccc(C(F)(F)F)cc2)C3)cc1` the figure was 1010 s; with `CCC(C)NC(=O)N1CCN(Cc2nc3cc(C(=O)N(C)C)ccc3n2C)CC1` (centres undefined), 586 s.

`Cn1c(CNC(=O)C2CCC2)nc2c1CN(S(=O)(=O)c1cccs1)CC2`: the RP-LC retention time worked out at 617 s. To `O=C1CC(c2ccccc2)N(Cc2ccc3c(c2)CCO3)CCCCCCN1` (centres undefined) belongs 668 s.

`COc1ccc(CCNC(=O)CSc2c[nH]c3ccccc23)cc1OC` showed an RP-LC retention time of 717 s. With `CCCNC(=O)c1ccc2nc(CCc3ccc(NC(=O)CC)cc3)[nH]c2c1` the figure was 608 s; with `CCOc1ccccc1OCc1nn2c(-c3ccccn3)nnc2s1`, 800 s. For `Cc1cccc(NS(=O)(=O)c2cc3c(s2)CCN(C(=O)C2CC2)C3)c1C`, the RP-LC retention time is 858 s. To `Cc1ccccc1CNC(=O)C1CCCN(C(=O)c2[nH]c(C)c(C(=O)OC(C)C)c2C)C1` (centres undefined) belongs 896 s. With `Cc1cc(C(=O)Nc2cccc3ccccc23)n(-c2ccccc2)n1` the figure was 908 s.

`CC1CCN(c2ncc3c(n2)CCN(Cc2ccc(N(C)C)cc2)C3)CC1` came in with an RP-LC retention time of 757 s. To `O=C(Cn1c(=O)c(=O)n(Cc2ccc(Cl)cc2)c2ccccc21)N1CCN(c2ccccn2)CC1` belongs 654 s; to `CCCNC(=O)c1nc(-c2ccc3c(c2)OCC(=O)N3CC)no1`, 821 s. To `O=C(CCCc1ccccc1)NCC(=O)N1CCN(c2ccccn2)CC1` belongs 605 s. To `COc1cc(-c2noc(CN3C(=O)C(C)Oc4ccccc43)n2)cc(OC)c1OC` (centres undefined) belongs 980 s; to `CCCC1(CO)CCCN1C(=O)c1ccc2[nH]ccc2c1` (centres undefined), 745 s. `CCn1ncc(CN2CC(c3nc(CCOCc4ccccc4)no3)C2)c1C` returned an RP-LC retention time of 662 s. `CCOc1ccc(C(=O)N2CCC3(C2)C(=O)N(C)c2ccccc23)cc1` (centres undefined) gave an RP-LC retention time of 802 s.

`CN1C(=O)c2cccnc2Sc2cc(C(=O)NCc3ccc(F)cc3)ccc21` returned an RP-LC retention time of 765 s. With `CCCn1ccc2oc(C)c(C(=O)NCc3ccc(CC)cc3)c2c1=O` the figure was 1170 s; with `COc1ccc(CCC(=O)NC(C)C(=O)Nc2nc3ccccc3[nH]2)cc1` (centres undefined), 656 s. With `Cc1nnc(-c2ccc3ccn(CC(=O)N4CCN(c5ccccc5)CC4)c3c2)o1` the figure was 801 s. To `CC(C)Cn1cc(CCNS(=O)(=O)c2cc(Cl)ccc2Cl)c2cccnc21` belongs 1040 s. `CCn1cc(CCNC(=O)Nc2ccc3c(c2)OCO3)c2cccnc21` returned an RP-LC retention time of 672 s. With `Cc1ccc(-c2ccc(N3CCCC(C(=O)NCc4ccc5c(c4)OCO5)C3)nn2)cc1` (centres undefined) the figure was 732 s. As to `CC1=C(c2ccccc2)S(=O)(=O)N=C1N1CCC(NC(=O)C2CCC2)CC1`, the RP-LC retention time amounted to 753 s. To `O=C(NC1CC1)c1cc(N2CCCC2)nc2ccc(F)cc12` belongs 600 s; to `Cc1noc2ncn(CC(=O)NCc3cccc(Br)c3)c(=O)c12`, 779 s; to `CCc1ccccc1NC(=O)N1CCC(c2cc(=O)n3nccc3n2C)CC1`, 663 s.

Turning to `Cc1noc(COC2CCN(C(=O)c3ccc4c(c3)OCO4)CC2)n1`, the RP-LC retention time is 702 s. To `COc1ccc(N2CCN(c3cc(SCC(=O)Nc4ccc(F)cc4)ncn3)CC2)cc1` belongs 1100 s; to `CCCN1CCN(C(=O)C(CC)n2c3ccccc3c3cnn(C)c(=O)c32)CC1` (centres undefined), 618 s; to `Cc1cccc(NC(=O)N2CCC(N3CCN(Cc4ccccn4)C(=O)C3=O)CC2)c1`, 610 s.

Turning to `Cc1ccc(-c2cn3cccnc3n2)cc1NC(=O)c1cccc(Br)c1`, the RP-LC retention time turned out to be 723 s. Compound `Cc1ccc(-c2nc3cnccn3c2NCCC(=O)NCC2CC2)cc1` registered an RP-LC retention time of 636 s.

In turn, `COC(=O)CCN(C(=O)c1ccc(OC(C)=O)cc1)c1ccccn1` displayed an RP-LC retention time of 668 s. `CCc1ccccc1NC(=O)Nc1cccc(-c2ccc(N3CCOCC3)nn2)c1` came in with an RP-LC retention time of 717 s. The compound `COCCC(=O)N1CCC2(CCC2O)CC1` (centres undefined) displayed an RP-LC retention time of 593 s. To `O=c1ccc(-n2cccn2)nn1CCNS(=O)(=O)c1ccc(Cl)s1` belongs 708 s.
